{"source": "paper PMC1586004", "about": "“Dibenzazecine compounds with a novel dopamine/5HT2A receptor profile and 3D-QSAR analysis” (BMC Pharmacology, 2006)", "key": {"hD1 receptor [1]": {"biological_target": "T1, hD1 receptor (Homo sapiens, UniProt P21728)", "T1 construct": "expressed in transfected cells", "T1 sequence (P21728 whole entry)": "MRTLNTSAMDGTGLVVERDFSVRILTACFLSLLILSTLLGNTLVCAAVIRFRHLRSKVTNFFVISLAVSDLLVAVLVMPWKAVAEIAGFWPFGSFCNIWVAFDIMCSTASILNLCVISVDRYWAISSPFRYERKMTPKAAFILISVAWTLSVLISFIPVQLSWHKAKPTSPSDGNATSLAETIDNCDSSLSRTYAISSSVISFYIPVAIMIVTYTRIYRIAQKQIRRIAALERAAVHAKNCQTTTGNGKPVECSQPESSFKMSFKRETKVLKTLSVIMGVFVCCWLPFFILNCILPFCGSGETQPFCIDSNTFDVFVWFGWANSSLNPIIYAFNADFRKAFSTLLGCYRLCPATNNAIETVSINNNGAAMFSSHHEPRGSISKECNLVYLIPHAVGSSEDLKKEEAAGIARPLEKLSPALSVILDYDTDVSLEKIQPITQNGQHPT", "assay": "[35S]-GTPγS binding in HEK293-hD1 cell membranes", "type": "biochemical", "procedure": "(§1) For [^35S]-GTPγS-binding, cell pellets were resuspended in 10 mM Tris-HCl/1 mM EDTA, pH 7.4, homogenized in a glass-teflon homogenizer and centrifuged for 15 min (40,000 × g, 4°C). Supernatant was discarded, and pellet was washed twice with ice-cold Tris-HCl/EDTA buffer and finally resuspended in 50 mM Tris-HCl, 4 mM MgCl2, 1 mM EDTA, 250 mM sucrose, pH 7.4, and stored at -80°C. The protein content was determined according to the Bradford method [30] with gamma immunoglobulin as standard."}, "hD1 receptor [2]": {"biological_target": "T1, hD1 receptor", "assay": "Radioligand competition binding at hD1 receptors (cell membranes)", "conditions": "for higher affinities for D1-like than for D2-like receptors: binding (table 2)"}, "hD1 receptor [3]": {"biological_target": "T1, hD1 receptor", "conditions": "radioligand binding literature data; cited from earlier work"}, "hD2L receptor [4]": {"biological_target": "T2, hD2L receptor (Homo sapiens, UniProt P14416)", "T2 construct": "expressed in transfected cells", "T2 sequence (P14416 whole entry)": "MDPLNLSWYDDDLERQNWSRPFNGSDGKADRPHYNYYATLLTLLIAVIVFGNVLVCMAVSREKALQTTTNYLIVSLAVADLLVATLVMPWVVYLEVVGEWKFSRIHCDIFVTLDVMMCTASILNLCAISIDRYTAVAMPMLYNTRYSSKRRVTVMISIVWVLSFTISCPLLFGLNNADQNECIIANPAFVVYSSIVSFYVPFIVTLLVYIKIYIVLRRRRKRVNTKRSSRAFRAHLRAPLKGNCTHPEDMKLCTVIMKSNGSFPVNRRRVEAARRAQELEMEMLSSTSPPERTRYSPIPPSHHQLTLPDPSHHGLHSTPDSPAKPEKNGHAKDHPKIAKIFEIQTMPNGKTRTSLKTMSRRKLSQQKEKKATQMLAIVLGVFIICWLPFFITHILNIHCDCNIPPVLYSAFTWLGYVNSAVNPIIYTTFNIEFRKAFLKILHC", "conditions": "radioligand binding literature data; cited from earlier work"}, "hD4.4 receptor": {"biological_target": "T3, hD4.4 receptor (Homo sapiens, UniProt P21917)", "T3 sequence (P21917 1-419)": "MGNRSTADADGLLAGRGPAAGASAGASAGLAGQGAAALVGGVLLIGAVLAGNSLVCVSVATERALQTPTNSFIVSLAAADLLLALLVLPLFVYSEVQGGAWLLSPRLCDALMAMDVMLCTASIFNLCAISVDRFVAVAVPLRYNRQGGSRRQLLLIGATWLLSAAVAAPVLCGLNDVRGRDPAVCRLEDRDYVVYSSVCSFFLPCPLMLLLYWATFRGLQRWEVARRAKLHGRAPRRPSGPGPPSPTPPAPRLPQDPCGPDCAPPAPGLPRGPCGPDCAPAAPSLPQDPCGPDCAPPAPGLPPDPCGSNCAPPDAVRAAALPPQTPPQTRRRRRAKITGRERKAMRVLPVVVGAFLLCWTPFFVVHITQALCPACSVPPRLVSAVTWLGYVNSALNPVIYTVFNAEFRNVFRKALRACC", "assay": "Radioligand competition binding at hD4.4 receptors (cell membranes)", "conditions": "read-out: pKi hD4.4 (converted)"}, "h5HT2A receptor": {"biological_target": "h5HT2A receptor (Homo sapiens, UniProt P28223)", "sequence (P28223 whole entry)": "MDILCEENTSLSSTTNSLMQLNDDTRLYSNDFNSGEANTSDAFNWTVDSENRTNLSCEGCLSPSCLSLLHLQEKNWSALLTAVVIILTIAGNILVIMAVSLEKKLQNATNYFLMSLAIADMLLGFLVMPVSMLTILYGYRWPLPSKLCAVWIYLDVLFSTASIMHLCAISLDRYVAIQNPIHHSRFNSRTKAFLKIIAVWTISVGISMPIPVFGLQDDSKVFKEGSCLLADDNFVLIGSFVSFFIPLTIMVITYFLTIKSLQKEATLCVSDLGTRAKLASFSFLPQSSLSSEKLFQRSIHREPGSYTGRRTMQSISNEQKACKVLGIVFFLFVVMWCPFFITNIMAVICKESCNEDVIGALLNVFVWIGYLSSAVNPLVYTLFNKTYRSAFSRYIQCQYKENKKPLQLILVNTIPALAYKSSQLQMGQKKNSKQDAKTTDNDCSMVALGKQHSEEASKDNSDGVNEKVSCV", "assay": "Radioligand competition binding at h5HT2A receptors (cell membranes)", "conditions": "read-out: pKi h5HT2A (converted)"}, "hD3 receptor": {"biological_target": "T4, hD3 receptor (Homo sapiens, UniProt P35462)", "T4 construct": "expressed in transfected cells", "T4 sequence (P35462 whole entry)": "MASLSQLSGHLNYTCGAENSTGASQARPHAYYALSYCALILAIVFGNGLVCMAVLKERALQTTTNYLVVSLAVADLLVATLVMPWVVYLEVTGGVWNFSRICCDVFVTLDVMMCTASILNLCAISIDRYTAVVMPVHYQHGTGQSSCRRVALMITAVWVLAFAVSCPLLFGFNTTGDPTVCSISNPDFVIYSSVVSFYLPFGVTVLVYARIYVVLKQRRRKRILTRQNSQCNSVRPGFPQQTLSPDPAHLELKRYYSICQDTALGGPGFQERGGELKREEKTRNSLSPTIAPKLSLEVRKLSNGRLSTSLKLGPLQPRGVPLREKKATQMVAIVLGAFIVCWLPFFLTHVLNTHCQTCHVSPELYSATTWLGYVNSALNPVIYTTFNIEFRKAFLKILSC", "assay": "Radioligand competition binding at hD3 receptors (cell membranes)", "conditions": "read-out: pKi hD3 (converted)"}, "hD5 receptor": {"biological_target": "T5, hD5 receptor (Homo sapiens, UniProt P21918)", "T5 construct": "expressed in transfected cells", "T5 sequence (P21918 whole entry)": "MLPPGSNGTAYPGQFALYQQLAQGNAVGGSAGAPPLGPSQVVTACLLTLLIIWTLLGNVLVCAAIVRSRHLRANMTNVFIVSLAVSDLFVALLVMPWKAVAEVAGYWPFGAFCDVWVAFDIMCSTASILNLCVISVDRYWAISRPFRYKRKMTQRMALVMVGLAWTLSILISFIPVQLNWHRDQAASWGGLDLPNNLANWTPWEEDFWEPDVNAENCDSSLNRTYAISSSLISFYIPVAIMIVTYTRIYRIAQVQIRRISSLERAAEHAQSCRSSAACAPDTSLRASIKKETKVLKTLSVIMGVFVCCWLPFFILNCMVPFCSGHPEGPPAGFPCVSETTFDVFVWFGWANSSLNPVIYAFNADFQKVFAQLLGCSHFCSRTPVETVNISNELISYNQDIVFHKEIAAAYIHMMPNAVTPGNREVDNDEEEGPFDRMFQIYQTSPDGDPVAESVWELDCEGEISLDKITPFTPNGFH", "assay": "Radioligand competition binding at hD5 receptors (cell membranes)", "conditions": "read-out: pKi hD5 (converted)"}, "hD2L receptor [5]": {"biological_target": "T2, hD2L receptor", "assay": "[35S]-GTPγS binding in HEK293-hD2L cell membranes", "type": "biochemical", "conditions": "read-out: pKi app [35S]-GTPγS binding hD2L (converted)", "procedure": "as §1"}, "hD1 receptor [6]": {"biological_target": "T1, hD1 receptor", "assay": "Intracellular [cAMP], CRE-luciferase reporter gene assay, HEK293-hD1 cells", "type": "cell-based"}, "hD2L receptor [7]": {"biological_target": "T2, hD2L receptor", "assay": "Intracellular [cAMP], CRE-luciferase reporter gene assay, HEK293-hD2L cells", "type": "cell-based", "conditions": "read-out: pKi app [cAMP]i hD2L (converted)"}, "hD2L receptor [8]": {"biological_target": "T2, hD2L receptor", "assay": "Intracellular [Ca2+] fluorescence assay, HEK293-hD2L cells", "type": "cell-based"}, "hD1 receptor [9]": {"biological_target": "T1, hD1 receptor", "assay": "Intracellular [Ca2+] fluorescence assay, HEK293-hD1 cells", "type": "cell-based"}, "hD2L receptor [10]": {"biological_target": "T2, hD2L receptor", "assay": "Radioligand competition binding at hD2L receptors (cell membranes)", "conditions": "read-out: pKi hD2L (converted)"}, "[11]": {"conditions": "Schild and Clark analyses, Ca2+ assay"}}, "note": "Marks after values point to notes of the source that are not given here.", "data": [{"smiles": "Oc1cc2c(cc1O)[C@H]1c3ccccc3CN[C@@H]1CC2", "note": "(racemic) [Dihydrexidine, reference compound]", "values": [{"measurement": "increase in [35S]-GTPγS binding compared with SKF38393", "setting": "hD1 receptor [1]; membrane preparations from HEK293-hD1 cells, 1 μM GDP", "value": "significantly higher increase"}]}, {"smiles": "BrCCN1CCc2ccccc2Cc2[nH]c3ccccc3c2CC1", "note": "[AHAD11]", "values": [{"measurement": "Ki", "setting": "hD1 receptor [2]; read-out: pKi hD1 (converted)", "value": 1510, "unit": "nM"}]}, {"smiles": "CN(C)CCC=C1c2ccccc2C=Nc2ccc(Cl)cc21", "note": "[RMI-81582, 2-chloro-11-(3-dimethylaminopropylidene)morphanthridine]", "values": [{"measurement": "Ki-D1/Ki-D2 (calculated from literature)", "setting": "hD1 receptor [3]", "value": "0.05^a)"}, {"measurement": "Ki-D2/Ki-5HT2A (calculated from literature)", "setting": "hD2L receptor [4]", "value": "31.6^a)"}]}, {"smiles": "CN1CCc2ccccc2Cc2[nH]c3ccccc3c2CC1", "note": "[LE300]", "values": [{"measurement": "Ki", "setting": "hD1 receptor [1]; read-out: pKi app [35S]-GTPγS binding hD1 (converted)", "value": 17.8, "unit": "nM"}, {"measurement": "Ki", "setting": "hD4.4 receptor", "value": 347, "unit": "nM"}, {"measurement": "Ki", "setting": "h5HT2A receptor", "value": 0.224, "unit": "nM"}, {"measurement": "Ki", "setting": "hD3 receptor", "value": 331, "unit": "nM"}, {"measurement": "Ki", "setting": "hD5 receptor", "value": 10.2, "unit": "nM"}, {"measurement": "Ki", "setting": "hD2L receptor [5]", "value": 7.24, "unit": "nM"}, {"measurement": "Ki-D1/Ki-D2", "setting": "hD1 receptor [2]", "value": 0.16}, {"measurement": "fold higher Ki using Krebs-HEPES instead of TRIS-HCl buffer, hD1", "setting": "hD1 receptor [2]", "value": "~ 4 fold"}, {"measurement": "Ki", "setting": "hD1 receptor [2]; 0.2 nM [3H]SCH23390, Krebs-HEPES buffer pH 7.4, n = 3, read-out: Ki (Krebs-HEPES) hD1", "value": "10 ± 1.15", "unit": "nM"}, {"measurement": "Ki", "setting": "hD1 receptor [2]; 0.2 nM [3H]SCH23390, TRIS-HCl pH 7.4, n = 3, read-out: Ki (TRIS-HCl) hD1", "value": "2.36 ± 0.13", "unit": "nM"}, {"measurement": "Ki", "setting": "hD1 receptor [2]; heterologous competition, 0.2 nM [3H]SCH23390, Krebs-HEPES buffer pH 7.4, mean ± SEM, n ≥ 3, read-out: pKi hD1 (converted)", "value": 10.5, "unit": "nM"}, {"measurement": "IC50", "setting": "hD1 receptor [6]; read-out: IC50 [cAMP] hD1 (antagonist)", "value": "123 ± 31.1", "unit": "nM"}, {"measurement": "Ki", "setting": "hD1 receptor [6]; read-out: pKi app [cAMP]i hD1 (converted)", "value": 28.2, "unit": "nM"}, {"measurement": "Ki", "setting": "hD2L receptor [7]", "value": 1.86, "unit": "nM"}, {"measurement": "Ki", "setting": "hD2L receptor [8]; read-out: pKi app [Ca2+]i hD2L (converted)", "value": 11.7, "unit": "nM"}, {"measurement": "pKi app [Ca2+]i hD1", "setting": "hD1 receptor [9]", "value": "7.22 ± 0.15"}, {"measurement": "IC50", "setting": "hD1 receptor [9]; read-out: IC50 [Ca2+] hD1 (antagonist)", "value": "718 ± 168", "unit": "nM"}, {"measurement": "Ki", "setting": "hD2L receptor [10]", "value": 64.6, "unit": "nM"}]}, {"smiles": "CN1CCc2ccccc2Cc2ccc(O)cc2CC1", "note": "[LE404]", "values": [{"measurement": "Ki", "setting": "h5HT2A receptor", "value": 1.62, "unit": "nM"}, {"measurement": "higher affinities for D1-like than for D2-like receptors", "setting": "hD1 receptor [2]", "value": "up to 33 fold"}, {"measurement": "nature of antagonism at D2L receptors", "setting": "hD2L receptor [8]; [11]", "value": "competitive antagonistic behaviour"}, {"measurement": "nature of antagonism at D1 receptors", "setting": "hD1 receptor [9]; [11]", "value": "competitive antagonistic behaviour"}, {"measurement": "D1 preference over D2L in Ca2+ studies", "setting": "hD1 receptor [9]; apparent functional Ki, Ca2+ (table 5)", "value": 3, "unit": "fold"}]}, {"smiles": "CN1CCc2ccccc2Cc2cc(O)c(O)cc2CC1", "note": "[LE403]", "values": [{"measurement": "Ki", "setting": "h5HT2A receptor", "value": 3.98, "unit": "nM"}, {"measurement": "Ki", "setting": "hD3 receptor", "value": 724, "unit": "nM"}, {"measurement": "higher affinities for D1-like than for D2-like receptors", "setting": "hD1 receptor [2]", "value": "up to 33 fold"}]}]}
